Patent US20010044151A1, “Ligands for modulating the expression of exogenous genes via an ecdysone receptor complex” (priority 1998, published 2001)

How the values were obtained:
[1] = target: T1, ecdysteroid receptor complex in Plodia interpunctella (IAL-PID2) nuclear extract (Plodia interpunctella, UniProt Q6RVD3); assay: Competitive 3H-ponasterone A binding assay, Plodia nuclear ecdysone receptor extract; details: 3H-ponasterone A displacement
T1 sequence (Q6RVD3 1-541): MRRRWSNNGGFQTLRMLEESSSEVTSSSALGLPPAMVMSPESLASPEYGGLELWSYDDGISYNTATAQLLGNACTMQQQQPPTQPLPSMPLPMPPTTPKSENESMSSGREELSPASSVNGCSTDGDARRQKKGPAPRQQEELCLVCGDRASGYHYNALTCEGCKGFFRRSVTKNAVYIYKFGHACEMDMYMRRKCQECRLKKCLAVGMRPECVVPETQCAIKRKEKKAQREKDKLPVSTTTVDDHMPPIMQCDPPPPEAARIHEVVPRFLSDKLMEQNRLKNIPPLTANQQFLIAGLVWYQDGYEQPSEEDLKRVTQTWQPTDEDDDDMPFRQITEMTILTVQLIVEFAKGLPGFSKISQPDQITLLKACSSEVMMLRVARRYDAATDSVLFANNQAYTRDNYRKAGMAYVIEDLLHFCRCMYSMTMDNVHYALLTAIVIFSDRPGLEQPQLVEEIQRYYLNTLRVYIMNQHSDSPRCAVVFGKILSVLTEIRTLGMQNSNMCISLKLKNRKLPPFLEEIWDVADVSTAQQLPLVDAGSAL
T1 sequence (Q6IVK1 1-415 partner): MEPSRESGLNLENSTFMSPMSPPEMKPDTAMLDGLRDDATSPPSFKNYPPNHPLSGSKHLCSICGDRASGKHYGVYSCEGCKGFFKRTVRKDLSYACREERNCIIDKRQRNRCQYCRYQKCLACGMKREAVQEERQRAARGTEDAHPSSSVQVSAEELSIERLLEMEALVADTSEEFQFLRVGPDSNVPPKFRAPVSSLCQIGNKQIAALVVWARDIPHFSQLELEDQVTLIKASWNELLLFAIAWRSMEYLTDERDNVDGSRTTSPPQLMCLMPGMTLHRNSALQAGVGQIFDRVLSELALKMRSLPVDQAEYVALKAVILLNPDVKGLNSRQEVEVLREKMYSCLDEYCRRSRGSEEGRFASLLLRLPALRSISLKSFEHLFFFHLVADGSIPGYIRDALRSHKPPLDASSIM
Description: The cell line IAL-PID2, derived from imaginal wing discs of the lepidopteran Plodia interpunctella was obtained from H. Oberlander and maintained as described (Lynn, E. E. and Oberlander, H., (1983), J. Insect Physiology, 29, 591-96). A 300 ml stationary phase culture of P. interpunctella cells was centrifuged at 700×g for 10 mm at room temperature to pellet the cells. The supernatant was aspirated and the cellular pellet resuspended in 35 ml TMT (TM buffer with 0.1% Triton X-100). The suspension was homogenized with twenty up and down strokes of a Dounce homogenizer on ice. Homogenate was incubated on ice for 10 minutes and then centrifuged for 15 min at 900×g. The pellet was resuspenced in 15 ml TM buffer and centrifuged at 2,300×g. This pellet was extracted in TMK buffer (TM buffer with 800 mM KCl) by using a glass rod to crush the pellet until a gelatinous slurry was formed and incubated on ice for 15 minutes. The extract was centrifuged at 100,000×g in a swinging bucket rotor for 60 minutes. The supernatant, which constituted the nuclear extract, was desalted on a 10 DG desalting column (Bio-Rad, 732-2010) equilibrated with T-buffer. The total protein concentration in the nuclear extract was adjusted to 5 mg per ml with T-buffer containing 1 mM DTT.
^3H ponasterone A, a potent phytoecdysteroid, (66,000 dpm; specific activity 170 Ci/mmole; NEN Life Science Products, Boston, Mass.) was mixed with 100 μl Kc cytosolic or Plodia nuclear ecdysone receptor extracts in […] glass test tubes in the absence or presence of 10 μM unlabelled 20-hydroxyecdysone (20E) to obtain an estimate of total or non-specific respectively, binding of tritiated ponasterone A. The tubes were vortexed and incubated overnight at 4° C. for Kc cytosolic extracts or 1.5 hours for Plodia nuclear extracts for binding reactions to reach equilibrium. At the end of equilibrium binding times, the bound tritiated ponasterone A was separated from the unbound by addition of ice-cold 600 μl or 300 μl dextran-coated charcoal solution (500 mg of Sigma HCL-washed activated charcoal, 50 mg Pharmacia Dextran T70, 50 ml T-buffer) to Kc or Plodia extracts, respectively. The tubes were vortexed briefly and centrifuged at 7,000×g to pellet the charcoal. The supernatant, 600 μl or 300 μl for Kc or Plodia extract reactions, respectively, containing tritiated ponasterone A bound to proteins, was aspirated into liquid scintillation vials containing 5 ml scintillation cocktail (ReadySafe®, Beckmann) each The mixture was vortexed and the amount of total or non-specifically bound radioactivity measured in a Beckmann LS500 liquid scinitllation counter with a 60% counting efficiency for tritium.
(§1) The concentrations of competitors that inhibited 50% of tritiated ponasterone A binding (IC50) was determined by incubating Kc or Plodia nuclear extracts or extracts of bacteria producing CfEcR(CDEF)-GST and CfUSP-GST fusions proteins with ^3H-ponasterone A (66,000 dpm per reaction) in the presence of a range of concentrations (0.1 nM to 10 μM) of test compounds. In the case of binding reactions using bacterial fusion proteins, 20 or one μl extract of bacteria producing CfEcR(CDEF)-GST or CfUSP-GST fusion proteins, respectively, were included per binding reaction. The assay conditions and determination of total and non-specific binding was as described above. The volume of competitor in solvent, like that for 20E or solvent alone, was kept at 1% of total reaction volume by using a 100 fold concentrated stock solution (i.e. a 100 fold dilution of stock solutions). The remainder of the assay was as described above. Each reaction was carried out in duplicate per concentration per test compound. Specific binding of ^3H-ponasterone A was determined by subtracting non-specific binding (that obtained in the presence of 10 μM 20E) from total (no competitor) or competed radioactivity bound. […]

[2] = target: CfEcR(CDEF)-GST and CfUSP-GST fusion proteins; assay: Competitive 3H-ponasterone A binding assay, bacterial GST fusion proteins; design: species or system Choristoneura fumiferana; details: bacterial CfEcR(CDEF)-GST/CfUSP-GST extracts, 3H-ponasterone A displacement
From the text: Bacterial glutathion-S-transferase (GST) fusion proteins of the spruce budworm (Choristoneura fumiferana) EcR (CfEcR), containing CDEF domains only, and ultraspiracle protein (CfUSP) were also used in radioligand displacement assays. cDNA encoding the CDEF domains of CfEcR were constructed following PCR amplification using primers that contain BamH1 and EcoRI sites (Perera S C, M Sundaram, Krell P J, Retnakaran A, Dhadialla T S, S R Palli, 1999 Arch. Insect Biochem. Physiol. 41 In Press). The PCR produce was digested with BamHI and EcoRI and cloned into pGEX-3X vector obtained from Pharmacia Biotech. CfUSP coding region was amplified using primers that contain BamH1 and EcoRI sites and cloned into to pGEX-2T vector obtained from Pharmacia Biotech. E. coli transformed with each of the two vectors were grown and induced to produce the fusion proteins as detailed in the Pharmacia Biotech GST-technical bulletin.
as §1, with “compound.” for “compound. Specific binding of ^3H-ponasterone A was determined by subtracting non-specific binding (that obtained in the presence of 10 μM 20E) from total (no competitor) or competed radioactivity bound.”

SMILES	Plodia log(1/IC50) [1]	Bacterial CfECR log(1/IC50) [2]
CCOc1cccc(C(=O)NN(C(=O)c2cc(C)cc(C)c2)C(C)(C)C)c1C [Ligand 6]	8.82	–
COc1cccc(C(=O)NN(C(=O)c2cc(C)cc(C)c2)C(C)(C)C)c1C(C)C [Ligand 11]	8.93	–
CCc1c(OC)cccc1C(=O)NN(C(=O)c1cc(C)cc(Cl)c1)C(C)(C)C [Ligand 10]	8.80	–
COc1cccc(C(=O)NN(C(=O)c2cc(Cl)cc(Cl)c2)C(C)(C)C)c1C [Ligand 9]	9.00	–
CCc1c(C(=O)NN(C(=O)c2cc(C)cc(C)c2)C(C)(C)C)ccc2c1OCCO2 [Ligand 7]	8.78	–
Cc1cc(C)cc(C(=O)N(NC(=O)c2cccc(O)c2C)C(C)(C)C)c1 [Ligand 14]	–	8.61
Cc1cc(CO)cc(C(=O)N(NC(=O)c2cccc(O)c2C)C(C)(C)C)c1 [Ligand 15]	–	8.49
